Experimental data from patent US20120142645A1, “NEUROACTIVE STEROID COMPOSITIONS AND METHODS OF USE FOR LOWERING CHOLESTEROL” (priority 2009, published 2012).

Test system: patients with schizophrenia or schizoaffective disorder
Experiment: BACS cognitive battery; same 8-week adjunctive pregnenolone trial
Format: in vivo, human
Conditions: for BACS Composite Z-score / BACS Digit Sequencing raw score / BACS Symbol Coding raw score / BACS Token Motor raw score / BACS Tower of London raw score / BACS Verbal Fluency raw score / BACS Verbal Memory raw score: mean, n = 9; for BACS Composite, difference PG vs placebo in Z-score change: not statistically significant (p=0.22)
Method: Study Design and Subjects. Disclosed herein is a placebo-controlled, double-blind, parallel group, randomized trial of adjunctive pregnenolone for the treatment of cognitive and negative symptoms in patients with schizophrenia or schizoaffective disorder. […] Patients received a total of 6 study visits, which took place every two weeks. […] The trial was conducted at a single site, the Durham Veterans Affairs Medical Center in Durham, N.C. The protocol was approved by the local institutional review board and conducted under FDA Investigational New Drug (IND) #71,768. The ClinicalTrials.gov number for this study is NCT00560937.
Cognitive symptoms were assessed by the Brief Assessment of Cognition in Schizophrenia (BAGS; Keefe et al., 2004; Keefe et al., 2008), and the MATRICS Consensus Cognitive Battery (Nuechterlein & Green, 2006; Nuechterlein et al., 2008). It is believed that no clinical trial to date has reported both of these cognitive assessments within the same study. The BAGS and MATRICS batteries were administered two weeks following the screening visit (following the completion of the two-week placebo lead-in phase at Visit 2), and at two 4-week intervals thereafter (at midpoint following randomization at Visit 4 and at the final visit (Visit 6).
The BAGS cognitive battery utilizes the following assessments in the respective targeted domains (Keefe et al., 2004; Keefe et al., 2008): list learning (verbal memory), digit sequencing task (working memory), token motor task (motor speed), verbal fluency (processing speed), symbol coding (attention and processing speed), and the Tower of London test (executive functions/reasoning and problem solving). The MATRICS cognitive battery utilizes the following assessments: Trail Making Test, Part A and the symbol coding subtest of the BAGS (both assess speed of processing), the Hopkins Verbal Learning Test-Revised, immediate recall (three learning trials only) [verbal learning], the Wechsler Memory Scale, 3rd ed., spatial span subtest (working memory, nonverbal), the Letter-Number Span test (working memory, verbal), the Neuropsychological Assessment Battery, mazes subtest (reasoning and problem solving), the Brief Visuospatial Memory Test-Revised (visual learning), the Category Fluency Test (animal naming) [speed of processing], the Mayer-Salovey-Caruso Emotional Intelligence Test, managing emotions branch (social cognition), and the Continuous Performance Test, Identical Pairs version (attention/vigilance) Of note, the symbol coding subtest of the BAGS was administered only once per visit at Visits 2, 4, and 6, although it is a component of both the BAGS and MATRICS cognitive batteries, in order to avoid potentially confounding practice effects.

[1] = Week 0 to Week 8, listed as pregnenolone

CC(=O)[C@H]1CC[C@H]2[C@@H]3CC=C4C[C@@H](O)CC[C@]4(C)[C@H]3CC[C@]12C [PG, pregnenolone]
BACS Composite Z-score (Week 0 (baseline)): −1.54
BACS Digit Sequencing raw score (Week 0 (baseline)): 15.78
BACS Symbol Coding raw score (Week 0 (baseline)): 36.89
BACS Token Motor raw score (Week 0 (baseline)): 46.44
BACS Tower of London raw score (Week 0 (baseline)): 13.22
BACS Verbal Fluency raw score (Week 0 (baseline)): 45.78
BACS Verbal Memory raw score (Week 0 (baseline)): 36.78
BACS Composite, change in Z-score (Week 0 to Week 8): 0.60
BACS Digit Sequencing, change in Z-score (Week 0 to Week 8): 0.50
BACS Digit Sequencing, difference PG vs placebo in Z-score change (Week 0 to Week 8): 0.25 ± 0.29
BACS Symbol Coding, change in Z-score (Week 0 to Week 8): 0.11
BACS Symbol Coding, difference PG vs placebo in Z-score change (Week 0 to Week 8): −0.16 ± 0.24
BACS Token Motor, change in Z-score (Week 0 to Week 8): 0.40
BACS Token Motor, difference PG vs placebo in Z-score change (Week 0 to Week 8): 0.42 ± 0.66
BACS Tower of London, change in Z-score (Week 0 to Week 8): 0.82±
BACS Tower of London, difference PG vs placebo in Z-score change (Week 0 to Week 8): 0.61 ± 0.80
BACS Verbal Fluency, change in Z-score (Week 0 to Week 8): −0.05
BACS Verbal Fluency, difference PG vs placebo in Z-score change (Week 0 to Week 8): −0.06 ± 0.32
BACS Verbal Memory, change in Z-score (Week 0 to Week 8): 0.83
BACS Verbal Memory, difference PG vs placebo in Z-score change (Week 0 to Week 8): 0.61 ± 0.38
BACS Composite, change in Z-score [1]: 0.60±0.78
BACS Digit Sequencing, difference PG vs placebo in Z-score change [1]: 0.25
BACS Token Motor, difference PG vs placebo in Z-score change [1]: 0.42
BACS Tower of London, difference PG vs placebo in Z-score change [1]: 0.61
BACS Verbal Memory, difference PG vs placebo in Z-score change [1]: 0.61
BACS Composite, difference PG vs placebo in Z-score change (Week 0 to Week 8): 0.38 ± 0.30
BACS Composite, difference PG vs placebo in Z-score change [1]: approximately 0.4
BACS Composite Z-score (Week 4): −1.04
BACS Digit Sequencing raw score (Week 4): 17.22
BACS Symbol Coding raw score (Week 4): 44.78
BACS Token Motor raw score (Week 4): 55.56
BACS Tower of London raw score (Week 4): 15.22
BACS Verbal Fluency raw score (Week 4): 45.11
BACS Verbal Memory raw score (Week 4): 39.00
BACS Composite Z-score (Week 8): −0.93
BACS Digit Sequencing raw score (Week 8): 18.44
BACS Symbol Coding raw score (Week 8): 38.67
BACS Token Motor raw score (Week 8): 52.22
BACS Tower of London raw score (Week 8): 16.22
BACS Verbal Fluency raw score (Week 8): 45.22
BACS Verbal Memory raw score (Week 8): 43.78
